Patent publication US7303889B2, “Ligand for G-protein coupled receptor GPR43 and uses thereof” (Euroscreen S.A., priority 2002, dated 2007)
Read-outs that look alike come from different tables or passages of the source.

Tests used:
[1] = molecular target: T1, human GPR43 (Homo sapiens, UniProt O15552); assay: Accumulation of GTPγ[35S] binding on membranes from CHO-K1 cells expressing human GPR43; type: biochemical; parameters: expressed in transfected cells; conditions: for activity on GTPγ[35S] binding / order of agonist potency: single concentration of each compound, FIG. 8
T1 sequence (O15552 1-330): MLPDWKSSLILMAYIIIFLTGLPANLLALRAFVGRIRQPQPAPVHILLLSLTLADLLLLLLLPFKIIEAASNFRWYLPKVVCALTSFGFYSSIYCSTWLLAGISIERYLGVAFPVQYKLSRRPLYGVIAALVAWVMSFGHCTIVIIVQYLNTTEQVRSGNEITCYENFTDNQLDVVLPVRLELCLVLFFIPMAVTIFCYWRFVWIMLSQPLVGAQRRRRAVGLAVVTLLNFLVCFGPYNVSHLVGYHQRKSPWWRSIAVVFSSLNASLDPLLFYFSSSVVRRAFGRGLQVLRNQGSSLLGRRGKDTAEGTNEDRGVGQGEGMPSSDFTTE
Experimental: For GPCRs such as GPR43, a measure of receptor activity is the binding of GTP by cell membranes containing receptors. In the method described by Traynor and Nahorski, 1995, Mol. Pharmacol. 47: 848-854, incorporated herein by reference, one essentially measures G-protein coupling to membranes by detecting the binding of labelled GTP. For GTP binding assays, membranes isolated from cells expressing the receptor are incubated in a buffer containing 20 mM HEPES, pH 7.4, 100 mM NaCl, and 10 mM MgCl2, 80 pM ^35S-GTPγS and 3 μM GDP. The assay mixture is incubated for 60 minutes at 30° C., after which unbound labelled GTP is removed by filtration onto GF/B filters. Bound, labelled GTP is measured by liquid scintillation counting. In order to assay for modulation of propionate-induced GPR43 activity, membranes prepared from cells expressing a GPR43 polypeptide are mixed with propionate, and the GTP binding assay is performed in the presence and absence of a candidate modulator of GPR43 activity. […] In this case, propionate-stimulated GTP binding is used as a standard. […] GTPase activity is measured by incubating the membranes containing a GPR43 polypeptide with γ^32P-GTP. Active GTPase will release the label as inorganic phosphate, which is detected by separation of free inorganic phosphate in a 5% suspension of activated charcoal in 20 mM H3PO4, followed by scintillation counting. Controls include assays using membranes isolated from cells not expressing GPR43 (mock-transfected), in order to exclude possible non-specific effects of the candidate compound.
The activity of acetate was examined in a membrane-based functional test.
The activity of other SCFA and related compounds (alcohols, aldehydes, cetone, di-acids . . . ) was evaluated using a single concentration of each in the membrane-cell based assay.

[2] = molecular target: T1, human GPR43; assay: Structure-activity relationships of SCFAs and related compounds on human GPR43 (FIG. 12); parameters: expressed in transfected cells; conditions: compared with corresponding non-substituted active compounds
[3] = test system: human polymorphonuclear (PMN) leukocytes; conditions: Naccache et al, Fonteriz et al, Nakao et al; cited from earlier work
[4] = molecular target: T1, human GPR43; conditions: library at 1-100 μM; confirmed by a dose response curve
Experimental: (§1) Additional related compounds were tested using the same cells.

[5] = test system: peripheral blood neutrophils; assay: Chemotactic response of neutrophilic granulocytes (48-well chamber); type: cell-based, human; conditions: for shape of chemotactic dose-response: FIG. 17
Experimental: Peripheral blood mononuclear cells were purified from buffy coats of healthy volunteers as previously described (Struyf S, De Meester I, Scharpe S, Lenaerts J P, Menten P, Wang J M, Proost P, Van Damme J., Eur J Immunol Apr. 28, 1998; 28 (4):1262-71). For intracellular calcium measurements, the cells were loaded for 30 min at room temperature with Fura-2AM (Molecular Probes). Calcium transients were monitored by a LS50B spectrofluorimeter (Perkin Elmer) as described (Grynkiewicz G, Poenie M, Tsien R Y., J Biol Chem Mar. 25, 1985;260(6):3440-50) at a final cell concentration of 10^6 cells/ml in buffer containing 125 μM probenecid. Chemotaxis was assessed in 48-well chambers using polycarbonate filter membranes with 3 μm (mesh size) (Neuroprobes, Inc.). The results are represented as chemotactic index (FIG. 17).
Freshly isolated peripheral blood neutrophils from healthy donors were tested for their chemotactic response to sodium acetate and propionate.

[6] = molecular target: T1, human GPR43; assay: Production of inositol phosphates in CHO-K1 cells stably expressing human GPR43; type: cell-based; parameters: expressed in transfected cells; conditions: PTX-pretreatment prior to stimulation; FIG. 10
[7] = test system: other GPCRs, such as motilin or histamine H1 receptor; conditions: Gqi only or cDNAs for other GPCRs; data not shown
[8] = molecular target: T1, human GPR43; assay: Inhibition of forskolin-stimulated adenylate cyclase activity in CHO-K1 cells stably expressing human GPR43; type: cell-based; parameters: expressed in transfected cells
Experimental: as §1
SCFA, ranging from 1 carbon to 4 carbon, were tested on CHO-K1 cells stably expressing the human GPR43 for their ability to inhibit the activity of adenylate cyclase stimulated with forskolin.

[9] = test system: non related human G-protein coupled receptors; assay: GTPγ[35S] binding on ten membrane preparations of CHO-K1 cells expressing non related human GPCRs; type: biochemical
[10] = test system: human polymorphonuclear (PMN) leukocytes; assay: Mobilization of intracellular calcium in human neutrophils (Fura-2); type: cell-based; conditions: for EC50: FIG. 15 and 16, read-out: EC50 for increase of intracellular calcium
Experimental: The following experiments were conducted to test whether the human polymorphonuclear (PMN) leukocytes could be activated with acetate and propionate, since the receptor is strongly expressed in peripheral blood cells containing mainly PMNs. Activation was determined by the quantification of the intracellular calcium mobilized from internal pool after activation by acetate and propionate of the cell membrane receptor. PMN were purified from the venous blood of healthy volunteers. Cells were isolated according to established methods. For intracellular calcium measurements, the cells were loaded for 30 min at room temperature with Fura-2AM (Molecular Probes). […] Briefly, neutrophils suspensions (1×10^7 cells/ml) were incubated with 2 μM Fura-2/AM for 30 minutes at 37° C. The cells were then washed free of the extracellular probe, resuspended at 5×10^6 cells/ml and allowed to reequilibrate for 10 minutes at 37° C. Cells were then transferred to the thermostatted cuvette compartment (37° C.) of the fluorometer and the fluorescence monitored (excitation and emission […], 340 and 510 nm respectively).

[11] = CHO-K1 cells stably expressing human GPR43, FIG. 4

Molecule: CC(O)CC(=O)O (racemic) [DL-β-hydroxybutyrate]
- activity on GTPγ[35S] binding [1]: Inactive
- activity on human GPR43 [2]: is not active

Molecule: NCCCC(=O)O [GABA]
- activity on GTPγ[35S] binding [1]: Inactive

Molecule: N[C@@H](CCC(=O)O)C(=O)O [L-glutamate]
- activity on GTPγ[35S] binding [1]: Inactive
- activity on human GPR43 [2]: abolished the signal

Molecule: CC=O [acetaldehyde]
- activity on GTPγ[35S] binding [1]: Inactive

Molecule: CC(=O)O [acetate]
- EC50 for cytoplasmic calcium mobilization in PMN [3]: millimolar
- activation of GTPγ[35S] binding, sodium versus ammonium salt ([1]; assay buffer containing 120 mM sodium or potassium, FIG. 7): equipotent
- potency on accumulation of GTPγ[35S] binding ([1]; compared with the cell-based cAMP assay, FIG. 6): comparable to that observed in the cell-based functional assay monitoring cAMP levels
- order of agonist potency [1]: acetate=propionate>n-butyrate=isobutyrate=n-valerate=caproate>>formate>>pyruvate=acetoacetate
- result of ligand screening [4]: specific activity
- shape of chemotactic dose-response [5]: classical bell-shaped dose-response curve
- PTX sensitivity of the accumulation of total inositol phosphates [6]: non PTX sensitive
- activation of control cells (inositol phosphates) [7]: not activated
- decrease of forskolin-stimulated adenylate cyclase activity [8]: 75%
- rank order of potency to inhibit forskolin-stimulated adenylate cyclase [8]: C2 (acetate)≧C3 (propionate)>C4 (butyrate)>>C1 (formate)
- observed effect on adenylate cyclase after overnight preincubation with Pertussis Toxin (PTX) ([8]; FIG. 5): totally abolished
- stimulation of GTPγ[35S] binding in membranes with non related receptors [9]: not able to stimulate any binding
- effect of increasing concentration on intracellular calcium [10]: concentration-dependent increase of intracellular calcium
- EC50 [10]: 537 µM

Molecule: CC(=O)CC(=O)O [acetoacetate]
- order of agonist potency [1]: acetate=propionate>n-butyrate=isobutyrate=n-valerate=caproate>>formate>>pyruvate=acetoacetate
- activity on human GPR43 [2]: decreased but consistent activity

Molecule: CC(C)=O [acetone]
- activity on GTPγ[35S] binding [1]: Inactive

Molecule: CCCC(=O)O [butyrate]
- decrease of forskolin-stimulated adenylate cyclase activity [8, 11]: 75%

Molecule: CCCCCC(=O)[O-].CCCCCC(=O)[O-].[Ca+2] [caproate]
- order of agonist potency [1]: acetate=propionate>n-butyrate=isobutyrate=n-valerate=caproate>>formate>>pyruvate=acetoacetate

Molecule: O=C(O)CC(O)(CC(=O)O)C(=O)O [citrate]
- activity on GTPγ[35S] binding [1]: Inactive
- activity on human GPR43 [2]: abolished the signal

Molecule: CCO [ethanol]
- activity on GTPγ[35S] binding [1]: Inactive

Molecule: O=CO [formate]
- activation of the human receptor (maximal response compared to acetate and propionate) ([1]; data not shown): partly activate
- order of agonist potency [1]: acetate=propionate>n-butyrate=isobutyrate=n-valerate=caproate>>formate>>pyruvate=acetoacetate
- decrease of forskolin-stimulated adenylate cyclase activity [8]: 75%
- rank order of potency to inhibit forskolin-stimulated adenylate cyclase [8]: C2 (acetate)≧C3 (propionate)>C4 (butyrate)>>C1 (formate)

Molecule: NCC(=O)O [glycine]
- activity on human GPR43 [2]: decreased activity without abolishing it

Molecule: CC(C)C(=O)O [isobutyrate]
- order of agonist potency [1]: acetate=propionate>n-butyrate=isobutyrate=n-valerate=caproate>>formate>>pyruvate=acetoacetate

Molecule: O=C(O)CC(=O)O [malonate]
- activity on GTPγ[35S] binding [1]: Inactive
- activity on human GPR43 [2]: abolished the signal

Molecule: CCCCC(=O)O [n-valerate]
- order of agonist potency [1]: acetate=propionate>n-butyrate=isobutyrate=n-valerate=caproate>>formate>>pyruvate=acetoacetate

Molecule: O=C(O)C(=O)O [oxalate]
- activity on GTPγ[35S] binding [1]: Inactive
- activity on human GPR43 [2]: abolished the signal

Molecule: CCC(=O)O [propionate]
- EC50 for cytoplasmic calcium mobilization in PMN [3]: millimolar
- order of agonist potency [1]: acetate=propionate>n-butyrate=isobutyrate=n-valerate=caproate>>formate>>pyruvate=acetoacetate
- shape of chemotactic dose-response [5]: classical bell-shaped dose-response curve
- PTX sensitivity of the accumulation of total inositol phosphates [6]: non PTX sensitive
- decrease of forskolin-stimulated adenylate cyclase activity [8, 11]: 75%
- rank order of potency to inhibit forskolin-stimulated adenylate cyclase ([8]; SCFA from 1 carbon to 4 carbon, FIG. 4): C2 (acetate)≧C3 (propionate)>C4 (butyrate)>>C1 (formate)
- stimulation of GTPγ[35S] binding in membranes with non related receptors ([9]; adenosine A1, adrenergic 2C, CRF 1, CCR3, LTB4, M4, neuropeptide FF 2S, opioid 3, 5-HT1A, sst5 receptors): not able to stimulate any binding
- effect of increasing concentration on intracellular calcium [10]: concentration-dependent increase of intracellular calcium
- EC50 ([10]; Leukocyte): 540 µM

Molecule: N[C@@H](CO)C(=O)O [serine]
- activity on human GPR43 [2]: abolished the activity

Molecule: O=C(O)CCC(=O)O [succinate]
- activity on GTPγ[35S] binding [1]: Inactive
- activity on human GPR43 [2]: abolished the signal

Molecule: f-met-leu-phe [fMLP]
- maximal chemotactic index relative to SCFA ([5]; on average, data not shown): at least 3 fold
